Values quoted from earlier work in patent US9168282B2, “Method for treating neuronal damage and neurological diseases” (priority 2009, dated 2015).

How the values were obtained:
herpes zoster patients [1] = details: 500 mg of Famciclovir three times per day, 7 days, meta-analysis data (Can Fam Physician 2008)
herpes zoster patients [2] = details: Famciclovir 500 mg three times per day, 7 days, meta-analysis data (Can Fam Physician 2008)

For `CC(=O)OCC(CCn1cnc2cnc(N)nc21)COC(C)=O` [Famciclovir], the “Median of time required for generating scab over the whole skin lesion” value (herpes zoster patients [1]) is listed as 5 days and the “Median of time required for relieving pain” value (herpes zoster patients [2]) is listed as 20 days.
